Test [1] can be described thus: M. tuberculosis growth inhibition, dose response, H37Rv, 7H9 media, purified and synthesized compounds, set 6 (AID 504897). The following applies: Mycobacterium tuberculosis H37Rv growth inhibition, 7H9 medium; at 100 µM (top of the series).
In test [2] the test system is Mycobacterium tuberculosis H37Rv growth inhibition, 7H9 medium. The description is as above. Particulars: for IC50: measured here: IC50 of Mtb growth inhibition.

Activity calls are given as the source filed them. No rule for the calls is given here.

From PubChem BioAssay AID504897 (Southern Research Specialized Biocontainment Screening …, 2011) come the findings set out here.

One may read the inhibition as the change of the read-out against control, counted positive when it falls. As to `CCSc1nc2ccccc2c(=O)[nH]1`, in test [1], the inhibition is -6.01% (inactive).
For orientation: IC90 means the concentration at which the effect reaches the 90% level. A word on the IC50: it is the concentration that inhibits the measured activity by half. A low value points to inhibition by little substance. Take `Cc1ccc(NC(=O)COC(=O)CCc2c[nH]c3ccccc23)cc1[N+](=O)[O-]`: in test [2], the IC90 was 4370 nM and the IC50 turned out to be 1340 nM.
On to `CCOC(=O)CSc1nc(C)c(C)c(=O)[nH]1`, for which the inhibition in test [1] was 3.07% (inactive).
On to `CC(C)N=c1cc2n(-c3ccc(Cl)cc3)c3ccccc3nc-2cc1Nc1ccc(Cl)cc1`, for which, in test [2], the IC90 is 396 nM and the IC50 came out at 67 nM.
In test [2], `Cc1[nH]c2ccccc2c1C(=O)COC(=O)c1ccc([N+](=O)[O-])s1` showed a 50% inhibitory concentration (IC50) of over 67400 nM.
Turning to `CC(Sc1nc2ccccc2c(=O)[nH]1)C(=O)NC1CCCCC1` (centres undefined), the inhibition in test [1] was -1.17% (inactive).
On the same count and under the same terms, then `COC(=O)C(Nc1nc(SCC(=O)NC2CCCCC2)nc2ccccc12)c1ccccc1` (centres undefined), with 9.91% (inactive).
`Cc1nc(SCC(=O)NCCC(C)C)[nH]c(=O)c1C`: in test [2], the concentration for an effect of 90% (IC90) is 8750 nM and the IC50 turned out to be 4900 nM.
As for `CCC(Sc1nc2ccccc2c(=O)[nH]1)C(=O)NC1CCCCC1` (centres undefined), the inhibition in test [1] was 1.35% (inactive).
Same read-out and setting: then `CCSc1nc(C)c(C)c(=O)[nH]1`, with 0.94% (inactive).
With `CN(C)C(=O)CSc1nc2ccccc2c(=O)[nH]1`, the inhibition in test [1] is 0.96% (inactive).
On to `CC(C)CCNC(=O)CSc1nc2c(c(=O)[nH]1)CCC2`, for which, in test [2], the IC90 was 947 nM and the IC50 worked out at 722 nM.
For `COc1cccc(NC(=O)CSc2nc3c(c(=O)[nH]2)CCC3)c1`, the inhibition in test [1] is -0.07% (inactive).
On the same count and under the same terms, the same measure for `NC(=O)CSc1nc2ccccc2c(=O)[nH]1`: 3.52% (inactive).
Take `Cc1nc(SCc2ccccc2Cl)[nH]c(=O)c1C`: in test [1], the inhibition was -10.5% (inactive).
Same read-out and setting: the same measure for `Cc1[nH]c(=S)[nH]c(=O)c1C`: -0.2% (inactive).
Take `Cc1ccc(C(=O)N/N=C(/CC(=O)c2cccs2)C(F)(F)F)cc1`: in test [2], the IC90 was 3100 nM and the half-inhibitory concentration (IC50) is 1930 nM.
For `CCC(Sc1nc2c(c(=O)[nH]1)CCC2)C(=O)Nc1cccc(OC)c1` (centres undefined), in test [1], the inhibition was 1.68% (inactive).
As to `Cc1nc(SCC(N)=O)[nH]c(=O)c1C`, in test [1], the inhibition was -2.86% (inactive).
In the case of `Cc1cc(=O)[nH]c(SCC(=O)NC2CCCCC2)n1`, the inhibition in test [1] is 0.97% (inactive).
On to `O=C(CSc1nc2c(c(=O)[nH]1)CCC2)NC1CCCCC1`, for which, in test [2], the 90% effect concentration (IC90) was under 69 nM and the IC50 was under 34 nM.
On the same counts, the results for `COc1c(N2CCNC(C)C2)c(F)cc2c(=O)c(C(=O)O)cn(C3CC3)c12` (centres undefined) are 162 nM and 113 nM.
On the same counts, the results for `CCOC1OC(=O)C(Cl)=C1Nc1ccccc1C` (centres undefined) are 5920 nM and 3220 nM.
With `CN(C(=O)CSc1nc2ccccc2c(=O)[nH]1)C1CCCCC1`, in test [1], the inhibition is -1.28% (inactive).
`O=C(CSc1ccccn1)NC1CCCCC1` gave an IC50 in test [2] of over 100000 nM.
Same read-out and setting: the same measure for `COC(=O)c1ccc(CNc2c(N3CCCC3)c(=O)c2=O)cc1`: over 100000 nM.
With `CCOc1ccc(-c2cc(C)[n+](CCc3ccc(OC)c(OC)c3)c(-c3ccc(OCC)cc3)c2)cc1`, in test [2], the IC90 is 954 nM and the IC50 stood at 568 nM.
On the same counts, the results for `CC(C)CNC(=O)CSc1nc2ccccc2c(=O)[nH]1` are 432 nM and 173 nM.
Take `COc1ccc(NC(=O)CSc2nc3ccccc3c(=O)[nH]2)cc1`: the inhibition in test [1] is 1.71% (inactive).
For `CCCc1cc(C(N)=S)ccn1`, in test [2], the IC50 came to 7240 nM.
`Nc1c(C(=O)NC2CCCCC2)nsc1C(=O)OCC(=O)NC1CCCCC1`: in test [2], the IC90 was 7450 nM and the IC50 was determined as 2130 nM.
On the same counts, the results for `CC1CCN(C(=O)C2CCN(c3nnc(-n4cccc4)s3)CC2)CC1` are 3900 nM and 2750 nM.
Turning to `Cn1c(SCC(=O)NC2CCCCC2)nc2ccccc2c1=O`, the inhibition in test [1] is -2.65% (inactive).
As to `COC(=O)C(C)Oc1ccc(Cc2ncc(C(F)(F)F)cc2Cl)cc1` (centres undefined), in test [2], the IC90 was 6750 nM and the concentration for half-maximal inhibition (IC50) stood at 3500 nM.
On the same counts, the results for `Cc1cccc(-c2oc3ccc(-c4ccc5c(c4)OCO5)cc3c2C#Cc2cncn2C)c1` are 2980 nM and 2410 nM.
On the same counts, the results for `CC(C)CCNC(=O)CSc1nc2ccccc2c(=O)[nH]1` are under 136 nM and under 81 nM.
For the molecule `Nc1cc(=O)[nH]c(SCC(=O)NC2CCCCC2)n1`, the inhibition in test [1] was -4.53% (inactive).
As to `CCC(Sc1nc2ccccc2c(=O)[nH]1)C(=O)Nc1cccc(OC)c1` (centres undefined), the inhibition in test [1] was 4.58% (inactive).
Turning to `Cc1nc(SCC(=O)NC2CCCCC2)[nH]c(=O)c1C`, in test [2], the IC90 is 1320 nM and the 50% inhibitory concentration (IC50) is under 6 nM.
On the same counts, the results for `O=C(CSc1nc2ccccc2c(=O)[nH]1)NCc1ccc(Cl)cc1` are 973 nM and 554 nM.
The like results for `O=C(CSc1nc2ccccc2c(=O)[nH]1)NC1CCCC1` were, in that order, 535 nM and 89 nM.
On the same counts, the results for `c1ccc(/N=C2\N=C(Nc3ccccn3)c3ccccc32)nc1` are 1760 nM and 1180 nM.
For the molecule `NC[C@H]1O[C@H](O[C@H]2[C@H](O)[C@@H](O[C@H]3O[C@H](CO)[C@@H](O)[C@H](N)[C@H]3O)[C@H](N)C[C@@H]2N)[C@H](O)[C@@H](O)[C@@H]1O`, in test [2], the concentration for an effect of 90% (IC90) is 2120 nM and the IC50 was 1390 nM.
On to `CC1CCN(C(=O)CSc2nc3ccccc3c(=O)[nH]2)CC1`, for which the inhibition in test [1] is 3.89% (inactive).
For the molecule `CC(C)NC(=O)CSc1nc2ccccc2c(=O)[nH]1`, in test [2], the IC90 was 14200 nM and the IC50 was determined as 5840 nM.
Consider `O=c1[nH]c(SCc2ccccc2Cl)nc2c1CCCC2`, for which the inhibition in test [1] is 1.13% (inactive).
For the molecule `CN1CCC(NC(=O)CSc2nc3ccccc3c(=O)[nH]2)CC1`, the inhibition in test [1] is -4.24% (inactive).
On to `CC[N+](C)(CC)CCCCOc1ccc2c(c1)C(=O)c1cc(OCCCC[N+](C)(CC)CC)ccc1-2`, for which, in test [2], the IC90 is 2650 nM and the IC50 was determined as 1770 nM.
On the same counts, the results for `Cc1cc(C)n2nc(N)c(N=Nc3ccccc3)c2n1` are 6010 nM and 4940 nM.
Take `Cc1c[nH]c(=S)[nH]c1=O`: the inhibition in test [1] is -0.98% (inactive).
Take `NC(=O)c1cnccn1`: the concentration for half-maximal inhibition (IC50) in test [2] is over 100000 nM.
Consider `O=C(CSc1nc2c(c(=O)[nH]1)CCCC2)NC1CCCCC1`, for which, in test [2], the IC90 is 81 nM and the 50% inhibitory concentration (IC50) is under 37 nM.
Take `Cc1cc(=O)[nH]c(=S)[nH]1`: the inhibition in test [1] was -3.5% (inactive).
Same read-out and setting: the same measure for `Cc1cnc(SCC(=O)NC2CCCCC2)[nH]c1=O`: 0.5% (inactive).
`CNC(=O)CSc1nc2ccccc2c(=O)[nH]1`: in test [2], the IC90 was 68100 nM and the 50% inhibitory concentration (IC50) came to 43900 nM.
As for `Cc1ccc(NC(=O)CSc2nc3ccccc3c(=O)[nH]2)cc1Cl`, in test [1], the inhibition was -4.35% (inactive).
Consider `O=C(CSc1ncccn1)NC1CCCCC1`, for which, in test [1], the inhibition is -0.52% (inactive).
The same measure, in the same setting: the same measure for `COc1cccc(NC(=O)CSc2nc3ccccc3c(=O)[nH]2)c1`: -3.46% (inactive); for `O=c1[nH]c(=S)[nH]c2ccccc12`: -4.69% (inactive).
With `Cc1cccc(/C=C/C(=O)c2ccc([N+](=O)[O-])o2)c1`, in test [2], the concentration for an effect of 90% (IC90) was 938 nM and the IC50 stood at 495 nM.
The like results for `Cc1cc(Br)ccc1NC(=O)c1cnc(N2CCN(c3ccccn3)CC2)c2ccccc12` were, in that order, 2790 nM and 887 nM.
The like results for `Cc1nc(SCC(=O)NC2CCCC2)[nH]c(=O)c1C` were, in that order, 8890 nM and 5120 nM.
On to `Cc1nc(SCC(=O)N(C)c2ccccc2)[nH]c(=O)c1C`, for which the inhibition in test [1] was -3.37% (inactive).
As for `O=C(CSc1nc2ccccc2c(=O)[nH]1)N1CCOCC1`, the inhibition in test [1] is 6.74% (inactive).
On the same count and under the same terms, the same measure for `O=C(CSc1nccc(=O)[nH]1)NC1CCCCC1`: 0.9% (inactive).
`CCCCNC(=O)CSc1nc2ccccc2c(=O)[nH]1`: in test [2], the concentration for an effect of 90% (IC90) is 1210 nM and the half-inhibitory concentration (IC50) came out at 55 nM.
On the same counts, the results for `CN[C@@H]1[C@H](O[C@H]2[C@H](O[C@H]3[C@H](O)[C@@H](O)[C@H](N=C(N)N)[C@@H](O)[C@@H]3N=C(N)N)O[C@@H](C)[C@]2(O)C=O)O[C@@H](CO)[C@H](O)[C@H]1O` are 176 nM and 101 nM.
The like results for `NNC(=O)c1ccncc1` were, in that order, 294 nM and 175 nM.
